In US6562808B1, “5,11-dihydrodibenzo[b,e][1,4]oxazepine derivatives and pharmaceutical composition containing the same” (Ajinomoto Co., Inc., priority 1997, dated 2003):

Tests used:
[1] = target: calcium channel (blood vessel, thoracic aortae) (Rattus norvegicus, UniProt P22002); assay: In vitro calcium channel-antagonistic effect (blood vessel): inhibition of high potassium contraction of thoracic aorta spiral samples; assay type: cell-based, rat (male Crj:CD); conditions: 30 minute pretreatment; for inhibition at 0.1 µM: high potassium (45.0 mM KCl) contraction, 10^−7 M test compound, read-out: Inhibition rate (%) (conc.: 10^−7M)
calcium channel (blood vessel, thoracic aortae), sequence (P22002 whole entry): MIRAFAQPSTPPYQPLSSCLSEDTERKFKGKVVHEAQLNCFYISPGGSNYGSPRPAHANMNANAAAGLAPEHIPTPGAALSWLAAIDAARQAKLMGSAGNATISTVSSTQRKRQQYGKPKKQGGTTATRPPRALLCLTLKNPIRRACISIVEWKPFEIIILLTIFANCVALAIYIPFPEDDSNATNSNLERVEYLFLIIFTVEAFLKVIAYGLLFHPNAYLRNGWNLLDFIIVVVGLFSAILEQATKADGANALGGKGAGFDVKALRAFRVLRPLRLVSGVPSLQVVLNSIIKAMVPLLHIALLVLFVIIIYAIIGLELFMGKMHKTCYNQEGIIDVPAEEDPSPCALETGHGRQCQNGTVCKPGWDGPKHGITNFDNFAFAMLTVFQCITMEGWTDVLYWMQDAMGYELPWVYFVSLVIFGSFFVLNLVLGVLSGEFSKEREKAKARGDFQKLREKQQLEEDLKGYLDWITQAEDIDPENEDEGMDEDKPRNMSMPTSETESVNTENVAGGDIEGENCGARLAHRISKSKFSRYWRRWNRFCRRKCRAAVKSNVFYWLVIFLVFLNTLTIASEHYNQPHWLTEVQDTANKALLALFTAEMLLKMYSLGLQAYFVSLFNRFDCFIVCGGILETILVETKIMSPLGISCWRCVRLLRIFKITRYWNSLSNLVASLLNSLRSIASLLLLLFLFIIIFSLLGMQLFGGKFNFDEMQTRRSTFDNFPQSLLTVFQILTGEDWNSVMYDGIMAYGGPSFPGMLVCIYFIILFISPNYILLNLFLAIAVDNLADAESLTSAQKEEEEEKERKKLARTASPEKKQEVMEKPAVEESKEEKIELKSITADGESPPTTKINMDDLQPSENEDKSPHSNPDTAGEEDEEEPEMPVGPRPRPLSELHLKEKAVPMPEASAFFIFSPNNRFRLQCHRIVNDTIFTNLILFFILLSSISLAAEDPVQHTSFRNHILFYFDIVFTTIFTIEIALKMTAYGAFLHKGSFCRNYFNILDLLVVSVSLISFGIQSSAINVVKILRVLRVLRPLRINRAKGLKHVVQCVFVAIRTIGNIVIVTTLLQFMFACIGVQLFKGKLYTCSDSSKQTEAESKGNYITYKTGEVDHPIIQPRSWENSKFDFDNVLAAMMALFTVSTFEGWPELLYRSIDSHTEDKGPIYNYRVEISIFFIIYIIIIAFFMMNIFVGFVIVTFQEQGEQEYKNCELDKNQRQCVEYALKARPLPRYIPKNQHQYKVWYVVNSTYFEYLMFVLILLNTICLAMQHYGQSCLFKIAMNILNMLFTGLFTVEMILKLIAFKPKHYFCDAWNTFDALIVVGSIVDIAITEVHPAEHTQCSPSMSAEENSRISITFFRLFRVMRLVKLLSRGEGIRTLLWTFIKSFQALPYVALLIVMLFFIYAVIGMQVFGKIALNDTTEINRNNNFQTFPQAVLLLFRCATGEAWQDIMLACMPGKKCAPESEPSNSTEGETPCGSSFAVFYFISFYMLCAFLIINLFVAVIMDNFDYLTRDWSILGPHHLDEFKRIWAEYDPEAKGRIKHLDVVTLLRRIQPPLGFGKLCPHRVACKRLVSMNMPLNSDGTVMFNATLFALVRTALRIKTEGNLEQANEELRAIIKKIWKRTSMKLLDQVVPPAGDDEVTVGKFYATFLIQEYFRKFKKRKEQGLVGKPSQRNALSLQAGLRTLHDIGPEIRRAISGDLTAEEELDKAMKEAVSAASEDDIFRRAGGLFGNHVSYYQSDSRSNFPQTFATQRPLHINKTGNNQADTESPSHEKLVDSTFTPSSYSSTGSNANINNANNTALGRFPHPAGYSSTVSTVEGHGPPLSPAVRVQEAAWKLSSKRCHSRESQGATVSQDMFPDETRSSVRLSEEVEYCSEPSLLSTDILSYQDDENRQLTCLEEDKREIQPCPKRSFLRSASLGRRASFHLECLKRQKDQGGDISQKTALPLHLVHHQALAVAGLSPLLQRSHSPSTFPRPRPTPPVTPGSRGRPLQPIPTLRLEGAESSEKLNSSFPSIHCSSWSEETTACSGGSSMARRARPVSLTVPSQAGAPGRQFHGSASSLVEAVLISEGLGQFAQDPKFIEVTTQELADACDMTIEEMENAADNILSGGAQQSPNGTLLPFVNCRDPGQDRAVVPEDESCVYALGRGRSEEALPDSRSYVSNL
Experimental: In Vitro Calcium Channel-antagonistic Effect (Blood Vessel):
The thoracic aortae were taken out of male Crj:CD rats (8-12 weeks old) and spiral samples were prepared from them. The blood vessel samples were suspended in Tyrode's solution in which a mixed gas (95% of oxygen and 5% of carbon dioxide) was introduced at 37° C. As for the change in tension of each blood vessel, the isometry was recorded on an ink writing recorder through a transducer. The high potassium contraction was caused by changing the nutritive solution from the Tyrode's solution to a potassium-Tyrode's solution (94.6 mM of NaCl, 45.0 mM of KCl, 1.8 mM of CaCl2, 1.04 mM of MgCl2, 0.4 mM of NaH2PO4, 11.9 mM of NaHCO3, and 5.55 mM of glucose). The high potassium contraction-inhibiting effect of the test compound was determined by 30 minute pretreatment. Compound A described in European Patent No. 0404359A1 was used as a comparative substance. The results of the determination of the calcium channel antagonistic activity were given in terms of the rate of inhibition of the high calcium contraction with 10^−7 M of the test compound. In Table 1, “−” means not determined.

calcium channel (ileum) = calcium channel (ileum) (Rattus norvegicus, UniProt P22002); assay: In vitro calcium channel-antagonistic effect (ileum): inhibition of high potassium contraction of ileum samples; assay type: cell-based, rat (male Crj:CD); conditions: 30 minute pretreatment; for inhibition at 0.1 µM: high potassium (45.0 mM KCl) contraction, 10^−7 M test compound, read-out: Inhibition rate (%) (conc.: 10^−7M)
calcium channel (ileum), sequence (P22002 whole entry): as above
Experimental: In Vitro Calcium Channel-antagonistic Effect (Ileum):
The ileum was taken out of male Crj:CD rats (8-12 weeks old) at a position of 3 cm distant from the ileocecal region. The ileum samples were suspended in Tyrode's solution in which a mixed gas (95% of oxygen and 5% of carbon dioxide) was introduced at 37° C. As for the change in tension of the ileum, the isometry was recorded on a ink writing recorder through a transducer. The high potassium contraction was caused by changing the nutritive solution from the Tyrode's solution to a potassium-Tyrode's solution (94.6 mM of NaCl, 45.0 mM of KCl, 1.8 mM of CaCl2, 1.04 mM of MgCl2, 0.4 mM of NaH2PO4, 11.9 mM of NaHCO3, and 5.55 mM of glucose). The high potassium contraction-inhibiting effect of the test compound was determined by 30 minute pretreatment. Compound A described in European Patent No. 0404359A1 was used as a comparative substance. The results of the determination of the calcium channel antagonistic activity were given in terms of the rate of inhibition of the high calcium contraction with 10^−7 M of the test compound. In Table 2, “−” means not determined.

[2] = Determination of solubility in neutral buffer solution; assay type: physicochemical; conditions: aqueous buffer, thermodynamic from solid; 0.15 M phosphate buffer pH 7.2, room temperature, left overnight, supernatant by HPLC
Experimental: Determination of Solubility:
A test compound was suspended in 0.15 M phosphate buffer solution having pH of 7.2 at room temperature. The obtained suspension was vigorously shaken and then left to stand overnight. The insoluble compound was removed by centrifugation, and the concentration of the compound in the supernatant was determined by the high-performance liquid chromatography.

| melting point [°C] | Structure (SMILES) | IC50 ([1]; high potassium contraction, read-out: IC50 (nM), concentration for 50% contraction inhibition) [nM] | IC50 (calcium channel (ileum); high potassium contraction, read-out: IC50(nM), concentration for 50% contraction inhibition) [nM] | solubility [2] [µg/mL] | inhibition at 0.1 µM [1] [%] | inhibition at 0.1 µM (calcium channel (ileum)) [%] |
| --- | --- | --- | --- | --- | --- | --- |
| 168 to 172 | Cl.Cl.Nc1ccccc1CCN1CCC[C@@H]1CN1c2ccccc2COc2ccccc21 | – | – | – | – | – |
| 141 to 144 | COc1ccc(CCN2CCC[C@@H]2CN2c3ccccc3COc3ccccc32)cc1N(C)C.Cl.Cl | – | – | – | – | – |
| 149 to 150 | Cl.O[C@@H](CCN1CCC[C@@H]1CN1c2ccccc2COc2ccccc21)c1ccccc1 | – | – | – | – | – |
| 179 to 182 | Cl.O[C@H](CCN1CCC[C@@H]1CN1c2ccccc2COc2ccccc21)c1ccccc1 | – | – | – | – | – |
| 120 to 122 | COc1ccc(C=CCN2CCC[C@@H]2CN2c3ccccc3COc3ccccc32)cc1.Cl | – | – | – | – | – |
| 186 to 191 | COc1ccc(OCCN2CCC[C@@H]2CN2c3ccccc3COc3ccccc32)cc1.Cl | – | – | – | – | – |
| 176 to 180 | Cl.Cl.Nc1ccc(CCN2CCC[C@@H]2CN2c3ccccc3COc3ccccc32)cc1 | – | – | – | – | – |
| – | COc1ccc(CCN2CCCC2CN2c3ccccc3CSc3ccccc32)cc1.O=C(O)/C=C\C(=O)O (stereo not drawn) [Compound A, reference compound] | 530 | 120 | 13 | – | – |
| 134 to 137 | CNc1ccc(CCN2CCC[C@@H]2CN2c3ccccc3COc3ccccc32)cc1.Cl.Cl [Example 8, (R)-5,11-Dihydro-5-[1-[2-(4-methylaminophenyl)ethyl]-2-pyrrolidinylmethyl]dibenzo[b,e][1,4]oxazepine Dihydrochloride] | – | – | 116 | – | – |
| 149 to 152 | Cl.Cl.Nc1cccc(CCN2CCC[C@@H]2CN2c3ccccc3COc3ccccc32)c1 [Example 13, (R)-5,11-Dihydro-5-[1-[2-(3-aminophenyl)ethyl]-2-pyrrolidinylmethyl]dibenzo[b,e][1,4]oxazepine Dihydrochloride] | – | – | 418 | – | – |

| Structure (SMILES) | melting point [°C] | IC50 ([1]; high potassium contraction, read-out: IC50 (nM), concentration for 50% contraction inhibition) [nM] | IC50 (calcium channel (ileum); high potassium contraction, read-out: IC50(nM), concentration for 50% contraction inhibition) [nM] | solubility [2] [µg/mL] | inhibition at 0.1 µM [1] [%] | inhibition at 0.1 µM (calcium channel (ileum)) [%] |
| --- | --- | --- | --- | --- | --- | --- |
| CN(C)c1ccc(CCN2CCC[C@@H]2CN2c3ccccc3COc3ccccc32)cc1.Cl.Cl [Example 2, (R)-5,11-Dihydro-5-[1-[2-(4-dimethylaminophenyl)ethyl]-2-pyrrolidinylmethyl]dibenzo[b,e][1,4]oxazepine Dihydrochloride] | 164 to 169 | – | – | 36 | 12 | 62 |
| CCN(CC)c1ccc(CCN2CCC[C@@H]2CN2c3ccccc3COc3ccccc32)cc1.Cl.Cl [Example 6, (R)-5,11-Dihydro-5-[1-[2-(4-diethylaminophenyl)ethyl]-2-pyrrolidinylmethyl]dibenzo[b,e][1,4]oxazepine Dihydrochloride] | 143 to 146 | – | – | 638 | 24 | 51 |
| CN(C)c1cccc(CCN2CCC[C@@H]2CN2c3ccccc3COc3ccccc32)c1.Cl.Cl [Example 10, (R)-5,11-Dihydro-5-[1-[2-(3-dimethylaminophenyl)ethyl]-2-pyrrolidinylmethyl]dibenzo[b,e][1,4]oxazepine Dihydrochloride] | 125 to 128 | – | – | 30 | 51 | 87 |
| CNc1cccc(CCN2CCC[C@@H]2CN2c3ccccc3COc3ccccc32)c1.Cl.Cl [Example 14, (R)-5,11-Dihydro-5-[1-[2-(3-methylaminophenyl)ethyl]-2-pyrrolidinylmethyl]dibenzo[b,e][1,4]oxazepine Dihydrochloride] | 179 to 181 | – | – | 56 | 41 | 76 |
| CN(C)c1cccc(CCN2CCC[C@@H]2CN2c3ccccc3COc3ccccc32)c1.Cl.Cl [Example 19, (R)-5,11-Dihydro-5-[1-[2-(3-dimethylaminophenyl)ethyl]2-pyrrolidinylmethyl)dibenzo[b,e][1,4]oxazepine Dihydrochloride] | 170 to 172 | – | – | – | – | – |
| COc1ccc(CCCN2CCC[C@@H]2CN2c3ccccc3COc3ccccc32)cc1.Cl [Example 24, (R)-5,11-Dihydro-5-[1-[3-(4-methoxyphenyl)propane-1-yl]-2-pyrrolidinylmethyl]dibenzo[b,e][1,4]oxazepine Hydrochloride] | 172 to 174 | – | – | 49 | 31 | 67 |
| CN(C)c1cccc(CCCN2CCC[C@@H]2CN2c3ccccc3COc3ccccc32)c1.Cl.Cl [Example 38, (R)-5,11-Dihydro-5-[1-[3-(3-dimethylaminophenyl)propane-1-yl]-2-pyrrolidinylmethyl]dibenzo[b,e][1,4]oxazepine Dihydrochloride] | 120 to 123 | – | – | 41 | 25 | 52 |
